In experiment [1] the target is MELK (Homo sapiens, UniProt Q14680). Briefly: Kinase assay: MELK activity, phosphorylation of FITC-labeled histone H3 peptide measured by IMAP fluorescence polarization. It is filed as biochemical. The settings on record: read-out: IC50 (μM) (kinase assay). The method in brief: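 Fluorescence polarization was measured 0.5 h (room temperature) after quenching with threefold volume of progressive binding solution. Test compounds from 12.5 mM DMSO stocks were assayed at 1% DMSO.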

Experiment [2] relates to HT-1197 cells. In words: Cell-based assay: anti-proliferative activity, Cell Counting Kit-8, 72 hours (HT-1197, negative control without MELK expression). The settings on record: Homo sapiens, HT1197, 72 h. The method in brief:
(§1)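 Proliferation read with Cell Counting Kit-8 after 72 hours of inhibitor treatment, from seeding of 2,000–3,000 cells/well. Lines: T47D, A549, BT-549; HT-1197, lacking MELK by western blot, served as negative control. IC50 derived.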

In experiment [3] the test system is DU4475. Briefly: Cell-based assay: anti-proliferative activity, Cell Counting Kit-8, 72 hours (DU4475). The settings on record: Homo sapiens, DU-4475, DU4475 cells.
In experiment [4] the test system is A549 cells. Briefly: Cell-based assay: anti-proliferative activity, Cell Counting Kit-8, 72 hours (A549). The settings on record: Homo sapiens, A549, 72 h. The method, boiled down: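 A549 cells seeded in 96-well plates and exposed to candidate inhibitors for 72 hours. Growth measured with Cell Counting Kit-8; IC50 values calculated from the dose response.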
Experiment [5] deals with T47D cells. Briefly: Cell-based assay: anti-proliferative activity, Cell Counting Kit-8, 72 hours (T47D). As to conditions: Homo sapiens, T47D, 72 h. The method in brief:
as §1

For experiment [6], the system named is BT-549 cells. In words: Cell-based assay: anti-proliferative activity, Cell Counting Kit-8, 72 hours (BT-549). The settings on record: Homo sapiens, BT-549, 72 h, BT549 cells, MELK-expressing; Cell Counting Kit-8 at 72 hours. The method, boiled down: as §1
Setting [7] is: HT1197 cells (negative control, no MELK expression), 72 hours.
Setting [8] is: 50 micro-M ATP, FITC-labeled histone H3 peptide substrate, IMAP fluorescence polarization.
Setting [9] is: MELK-expressing, Cell Counting Kit-8 at 72 hours.

Read-outs that look alike come from different tables or passages of the source.

Chain of MELK (Q14680 whole entry, looked up): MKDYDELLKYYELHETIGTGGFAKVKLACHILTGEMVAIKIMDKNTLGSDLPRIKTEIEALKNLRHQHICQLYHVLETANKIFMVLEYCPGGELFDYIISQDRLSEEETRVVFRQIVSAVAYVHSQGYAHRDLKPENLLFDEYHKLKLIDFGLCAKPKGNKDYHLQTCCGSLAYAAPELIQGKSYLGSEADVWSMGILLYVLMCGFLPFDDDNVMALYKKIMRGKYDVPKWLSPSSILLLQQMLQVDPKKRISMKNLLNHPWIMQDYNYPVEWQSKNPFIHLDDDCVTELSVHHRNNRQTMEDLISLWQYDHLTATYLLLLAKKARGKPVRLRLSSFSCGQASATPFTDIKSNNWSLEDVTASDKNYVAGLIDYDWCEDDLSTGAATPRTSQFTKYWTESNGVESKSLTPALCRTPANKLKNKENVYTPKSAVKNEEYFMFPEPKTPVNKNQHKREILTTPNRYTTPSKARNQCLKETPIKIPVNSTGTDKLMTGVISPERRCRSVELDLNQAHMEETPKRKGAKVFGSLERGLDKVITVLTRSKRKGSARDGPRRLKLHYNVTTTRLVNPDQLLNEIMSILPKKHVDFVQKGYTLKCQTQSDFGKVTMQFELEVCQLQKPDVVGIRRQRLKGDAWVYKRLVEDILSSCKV

As for `C[S+]([O-])c1cnc2ccc(-c3cc(Cl)c(O)c(Cl)c3)cc2c1N[C@H]1CC[C@H](N)CC1` (some centres unmarked) [Example 491], the IC50 in experiment [1] worked out at 0.0075 µM; in experiment [2] (setting [7]) it was 10 µM; in experiment [3] it was 2.9 µM; in experiment [4] (72 hours), 10 µM; in experiment [5], 7 µM.
Turning to `COc1cc(-c2ccc3ncc(C(=O)C4CC4)c(-c4ccc(C(=O)N5CCN(C)CC5)cc4)c3c2)cc(Cl)c1O` [Example 476, (4-(6-(3-chloro-4-hydroxy-5-methoxyphenyl)-3-(cyclopropanecarbonyl)quinolin-4-yl)phenyl)(4-methylpiperazin-1-yl)methanone], the IC50 in experiment [1] was found to be 0.0081 µM; in experiment [2] (setting [7]), 2.1 µM; in experiment [3] it was 0.5 µM; in experiment [4] (72 hours) it was 0.31 µM; in experiment [5], 0.23 µM.
In the same order, the values of `NC[C@H]1CC[C@H](Nc2c(C(=O)C3CC3)cnc3ccc(-c4cc(Cl)c(O)c(Cl)c4)cc23)CC1` [Example 495, {4-[trans-4-(Aminomethyl)cyclohexylamino]-6-(3,5-dichloro-4-hydroxyphenyl)quinolin-3-yl}(cyclopropyl)methanone] are 0.0029 µM, 3.9 µM, 0.018 µM, 0.35 µM and 0.045 µM.
For the compound `COc1cc(-c2ccc3ncc(C(=O)C4CC4)c(Nc4cnc(N5CCNCC5)nc4)c3c2)cc(Cl)c1O` [Example 503, (6-(3-chloro-4-hydroxy-5-methoxyphenyl)-4-(2-(piperazin-1-yl)pyrimidin-5-ylamino)quinolin-3-yl)(cyclopropyl)methanone], the IC50 in experiment [1] is 0.0047 µM; in experiment [2] (setting [7]), 1.1 µM; in experiment [3] it was 0.46 µM; in experiment [4] (72 hours), 0.37 µM; in experiment [5], 0.24 µM.
Turning to `NC[C@H]1CC[C@H](Nc2c(C(=O)C3CC3)cnc3ccc(-c4cc(F)c(O)c(Cl)c4)cc23)CC1` [Example 501, {4-[trans-4-(Aminomethyl)cyclohexylamino]-6-(3-chloro-5-fluoro-4-hydroxyphenyl)quinolin-3-yl}(cyclopropyl)methanone], the IC50 in experiment [1] is 0.046 µM; in experiment [2] (setting [7]) it was 1.2 µM; in experiment [3], 0.031 µM; in experiment [4] (72 hours), 0.57 µM; in experiment [5], 0.061 µM.
For `CCOc1cc(-c2ccc3ncc(C(=O)C4CC4)c(N4CCC(CN(C)C)CC4)c3c2)cc(Cl)c1O` [Example 457], the IC50 was 0.0024 µM in experiment [1] (setting [8]); 2.4 µM in experiment [2] (setting [7]); 0.21 µM in experiment [3]; 0.14 µM in experiment [4] (72 hours); 0.22 µM in experiment [5].
The matching figures for `O=C(c1cnc2ccc(-c3cc(Cl)c(O)c(Cl)c3)cc2c1Nc1ccc(N2CCNCC2)nc1)C1CC1` [Example 409, Cyclopropyl{6-(3,5-dichloro-4-hydroxyphenyl)-4-[6-(piperazin-1-yl)pyridin-3-ylamino]quinolin-3-yl}methanone]: 0.0017 µM, 1.6 µM, 0.098 µM, 0.26 µM and 0.074 µM.
The matching figures for `COc1cc(-c2ccc3ncc(C(=O)C4CC4)c(N4CCN(CCN5CCCC5)CC4)c3c2)cc(Cl)c1O` [Example 394, (6-(3-chloro-4-hydroxy-5-methoxyphenyl)-4-(4-(2-(pyrrolidin-1-yl)ethyl)piperazin-1-yl)quinolin-3-yl)(cyclopropyl)methanone]: 0.0018 µM, 5.3 µM, 0.24 µM, 0.25 µM and 0.4 µM.
Turning to `O=C(c1cnc2ccc(-c3cc(Cl)c(O)c(Cl)c3)cc2c1-c1ccc(OCCN2CCCC2)cc1)C1CC1` [Example 485, cyclopropyl(6-(3,5-dichloro-4-hydroxyphenyl)-4-(4-(2-(pyrrolidin-1-yl)ethoxy)phenyl)quinolin-3-yl)methanone], the IC50 worked out at 0.0056 µM in experiment [1]; 10 µM in experiment [2] (setting [7]); 1.2 µM in experiment [3]; 1.2 µM in experiment [4] (72 hours); 0.77 µM in experiment [5].
Turning to `O=C(c1cnc2ccc(-c3cc(F)c(O)c(Cl)c3)cc2c1Nc1cnc(N2CCNCC2)nc1)C1CC1` [Example 496, (6-(3-chloro-5-fluoro-4-hydroxyphenyl)-4-((2-(piperazin-1-yl)pyrimidin-5-yl)amino)quinolin-3-yl)(cyclopropyl)methanone], the IC50 came to 0.0048 µM in experiment [1]; 0.64 µM in experiment [2] (setting [7]); 0.068 µM in experiment [3]; 0.079 µM in experiment [4] (72 hours); 0.036 µM in experiment [5].
For the compound `NCc1ccc(Nc2c(C(=O)C3CC3)cnc3ccc(-c4cc(F)c(O)c(Cl)c4)cc23)cc1` [Example 504, {4-[4-(Aminomethyl)phenylamino]-6-(3-chloro-5-fluoro-4-hydroxyphenyl)quinolin-3-yl}(cyclopropyl)methanone], the IC50 was found to be 0.0089 µM in experiment [1]; 0.71 µM in experiment [2] (setting [7]); 0.019 µM in experiment [3]; 0.081 µM in experiment [4] (72 hours); 0.084 µM in experiment [5].
For the compound `CC(C)C(=O)c1cnc2ccc(-c3cc4cc(O)ccc4[nH]3)cc2c1N[C@H]1CC[C@H](N)CC1` [Example 480], the IC50 in experiment [1] amounted to 0.054 µM; in experiment [2] (setting [7]), 4.6 µM; in experiment [3], 0.93 µM; in experiment [4] (72 hours), 2.7 µM; in experiment [5] it was 0.59 µM.
Regarding `COc1cc(-c2ccc3ncc(C#N)c(N[C@H]4CC[C@H](N(C)C)CC4)c3c2)cc(Cl)c1O` [Example 447], the IC50 in experiment [2] (setting [7]) stood at 2 µM; in experiment [3] it was 0.076 µM; in experiment [4] (72 hours), 0.4 µM; in experiment [5], 0.15 µM.
In the case of `COc1cc(-c2ccc3ncc(C(C)=O)c(Nc4ccc(N5CCN(C)CC5)nc4)c3c2)cc(Cl)c1O` [Example 483, 1-(6-(3-chloro-4-hydroxy-5-methoxyphenyl)-4-(6-(4-methylpiperazin-1-yl)pyridin-3-ylamino)quinolin-3-yl)ethanone], the half-inhibitory concentration (IC50) in experiment [1] turned out to be 0.016 µM; in experiment [2] (setting [7]), 0.89 µM; in experiment [3], 0.69 µM; in experiment [4] (72 hours), 0.64 µM; in experiment [5], 0.64 µM.
For the compound `CN1CCN(c2ccc(Nc3c(C(=O)C4CC4)cnc4ccc(-c5cnc(C#N)nc5)cc34)cn2)CC1` [Example 469], the half-inhibitory concentration (IC50) in experiment [1] was determined as 0.0015 µM; in experiment [2] (setting [7]), 1.4 µM; in experiment [3], 0.43 µM; in experiment [4] (72 hours), 0.99 µM; in experiment [5] it was 0.18 µM.
On to `CC(=O)c1cnc2ccc(-c3cc(Cl)c(O)c(Cl)c3)cc2c1Nc1ccc(CN2CCCC2)cc1` [Example 415, 1-(6-(3,5-dichloro-4-hydroxyphenyl)-4-((4-(pyrrolidin-1-ylmethyl)phenyl)amino)quinolin-3-yl)ethanone], for which the IC50 is 0.035 µM in experiment [1] (setting [8]); 10 µM in experiment [2] (setting [7]); 0.067 µM in experiment [3]; 0.15 µM in experiment [4] (72 hours); 0.12 µM in experiment [5].
`CN1CCN(Cc2ccc(-c3c(C(=O)C4CC4)cnc4ccc(-c5cc(Cl)c(O)c(Cl)c5)cc34)cc2)CC1` [Example 482, cyclopropyl(6-(3,5-dichloro-4-hydroxyphenyl)-4-(4-((4-methylpiperazin-1-yl)methyl)phenyl)quinolin-3-yl)methanone]: the IC50 in experiment [2] (setting [7]) was determined as 3.1 µM; in experiment [3], 0.9 µM; in experiment [4] (72 hours) it was 0.96 µM; in experiment [5] it was 0.54 µM.
As to `COc1cc(-c2ccc3ncc([S+](C)[O-])c(N[C@H]4CC[C@H](N)CC4)c3c2)cc(Cl)c1O` (some centres unmarked) [Example 500], the IC50 in experiment [2] (setting [7]) came to 13 µM; in experiment [3], 1.8 µM; in experiment [4] (72 hours) it was 4.5 µM; in experiment [5] it was 1.6 µM.
For `O=C(c1cnc2ccc(-c3cc(Cl)c(O)c(Cl)c3)cc2c1Nc1ccc(CN2CCOCC2)cc1)C1CC1` [Example 463], the IC50 in experiment [2] (setting [7]) came to 3.6 µM; in experiment [3], 0.26 µM; in experiment [4] (72 hours) it was 0.43 µM; in experiment [5] it was 0.52 µM.
For the compound `N#Cc1ncc(-c2ccc3ncc(C(=O)C4CC4)c(Nc4ccc(CN)cc4)c3c2)cn1` [Example 509, 5-(4-(4-(aminomethyl)phenylamino)-3-(cyclopropanecarbonyl)quinolin-6-yl)pyrimidine-2-carbonitrile], the IC50 in experiment [2] (setting [7]) was 0.95 µM; in experiment [3] it was 0.6 µM; in experiment [4] (72 hours), 0.79 µM; in experiment [5], 0.19 µM.
On to `N[C@H]1CC[C@H](Nc2c(C(=O)C3CC3)cnc3ccc(-c4ccc(O)cc4)cc23)CC1` [Example 55, {4-[trans-4-Aminocyclohexylamino]-6-(4-hydroxyphenyl)quinolin-3-yl}(cyclopropyl)methanone], for which the IC50 in experiment [1] (setting [8]) stood at 0.021 µM; in experiment [2] (HT1197 cells, no MELK expression (negative control), Cell Counting Kit-8 at 72 hours), 2 µM; in experiment [6], 0.43 µM; in experiment [4] (setting [9]), 0.48 µM; in experiment [5] (setting [9]), 0.2 µM.
With `CN(C)Cc1ccc(Nc2c([S+](C)[O-])cnc3ccc(-c4cc(Cl)c(O)c(Cl)c4)cc23)cc1` (centres unmarked) [Example 473], the IC50 in experiment [2] (setting [7]) stood at 2.4 µM; in experiment [3], 0.6 µM; in experiment [4] (72 hours), 1.2 µM; in experiment [5], 0.43 µM.

The values above are taken from patent US9120749B2, “Quinoline derivatives and MELK inhibitors containing the same” (ONCOTHERAPY SCIENCE, INC., priority 2010, dated 2015).
